According to ChEMBL document CHEMBL3621090, “Discovery of a novel Kv7 channel opener as a treatment for epilepsy” (Bioorg Med Chem Lett, 2015):

Tests used:
[1] = target: Voltage-gated potassium channel, KQT; KCNQ2(Kv7.2)/KCNQ3(Kv7.3) (Homo sapiens) (UniProt O43526+O43525); assay: (§1) Activation of human Kv7.2/7.3 expressed in CHOK1 cells; format: cell-based; details: CHO-K1; as to max activation: test concentration or dose not given here
[2] = target: Voltage-gated potassium channel, KQT; KCNQ2(Kv7.2)/KCNQ3(Kv7.3) (Homo sapiens, UniProt O43525+O43526); assay: as §1; format: cell-based, CHO-K1
Chain of Voltage-gated potassium channel, KQT; KCNQ2(Kv7.2)/KCNQ3(Kv7.3) (O43526 whole entry): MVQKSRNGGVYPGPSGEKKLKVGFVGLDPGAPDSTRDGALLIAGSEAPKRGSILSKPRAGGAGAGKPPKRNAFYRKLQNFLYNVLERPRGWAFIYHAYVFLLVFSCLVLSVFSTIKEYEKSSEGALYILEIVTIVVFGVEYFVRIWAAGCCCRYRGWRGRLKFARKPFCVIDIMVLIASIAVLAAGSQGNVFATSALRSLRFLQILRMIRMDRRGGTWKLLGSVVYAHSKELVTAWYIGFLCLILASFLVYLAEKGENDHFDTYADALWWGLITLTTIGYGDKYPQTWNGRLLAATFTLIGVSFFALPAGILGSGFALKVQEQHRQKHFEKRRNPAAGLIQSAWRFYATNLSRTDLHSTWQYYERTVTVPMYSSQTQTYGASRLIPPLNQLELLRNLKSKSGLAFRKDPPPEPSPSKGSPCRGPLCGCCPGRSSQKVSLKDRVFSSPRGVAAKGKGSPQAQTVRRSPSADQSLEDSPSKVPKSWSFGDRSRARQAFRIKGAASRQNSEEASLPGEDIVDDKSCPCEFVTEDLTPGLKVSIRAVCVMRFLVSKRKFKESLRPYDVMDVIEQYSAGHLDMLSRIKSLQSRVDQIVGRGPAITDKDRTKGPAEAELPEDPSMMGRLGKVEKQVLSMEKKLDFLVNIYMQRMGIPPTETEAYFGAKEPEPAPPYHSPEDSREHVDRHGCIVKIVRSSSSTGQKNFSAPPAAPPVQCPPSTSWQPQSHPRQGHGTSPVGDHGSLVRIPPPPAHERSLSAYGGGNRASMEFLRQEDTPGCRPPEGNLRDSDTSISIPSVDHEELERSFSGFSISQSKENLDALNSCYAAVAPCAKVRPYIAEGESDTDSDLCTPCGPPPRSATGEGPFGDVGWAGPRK
Chain of Voltage-gated potassium channel, KQT; KCNQ2(Kv7.2)/KCNQ3(Kv7.3) (O43525 whole entry): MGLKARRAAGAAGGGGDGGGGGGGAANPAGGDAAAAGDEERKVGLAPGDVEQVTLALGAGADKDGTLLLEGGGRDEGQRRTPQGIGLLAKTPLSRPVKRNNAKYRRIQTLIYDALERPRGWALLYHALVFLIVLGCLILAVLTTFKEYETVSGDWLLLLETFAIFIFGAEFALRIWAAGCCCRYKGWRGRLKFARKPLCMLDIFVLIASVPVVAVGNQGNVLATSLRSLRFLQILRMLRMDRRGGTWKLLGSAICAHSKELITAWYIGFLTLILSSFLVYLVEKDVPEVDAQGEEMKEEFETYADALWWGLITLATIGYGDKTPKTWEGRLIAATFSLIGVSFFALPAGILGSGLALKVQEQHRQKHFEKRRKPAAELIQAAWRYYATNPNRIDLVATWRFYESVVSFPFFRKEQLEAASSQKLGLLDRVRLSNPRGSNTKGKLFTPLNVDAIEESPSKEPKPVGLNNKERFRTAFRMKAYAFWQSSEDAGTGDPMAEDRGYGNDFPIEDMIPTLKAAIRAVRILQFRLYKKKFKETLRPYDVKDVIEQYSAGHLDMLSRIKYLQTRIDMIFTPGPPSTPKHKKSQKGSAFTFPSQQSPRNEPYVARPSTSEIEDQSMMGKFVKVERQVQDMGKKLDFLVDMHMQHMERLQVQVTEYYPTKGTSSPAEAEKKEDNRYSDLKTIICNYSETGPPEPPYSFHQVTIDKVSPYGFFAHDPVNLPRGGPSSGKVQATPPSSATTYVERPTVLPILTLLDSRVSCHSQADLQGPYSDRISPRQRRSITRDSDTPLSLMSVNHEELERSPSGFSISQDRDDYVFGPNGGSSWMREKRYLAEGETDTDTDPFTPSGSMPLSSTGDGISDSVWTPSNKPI

[3] = Intrinsic clearance in human liver microsomes measured over 1 hr in presence of NADPH regenerating system; format: ADME; details: read-out: CLH
[4] = Permeability in dog RRCK cells after 2 hrs by transwell assay; format: ADME, cell-based, Canis lupus familiaris, MDCKII-LE; details: mdck, read-out: permeability
MDCK = assay: Efflux ratio of permeability from basolateral to apical over apical to basolateral side in MDCK cells transfected with MDR1; format: ADME, cell-based, Canis lupus familiaris; details: dog
[5] = Toxicity in human THLE cells assessed as ATP depletion; format: cell-based
Liver microsome = assay: Stability in human liver microsomes in absence of NADPH; format: ADME

SMILES | max activation [1] | EC50 [2] | CLint scaled [3] | Papp at 2 h [4] | Ratio (MDCK) | IC50 [5] | Stability (Liver microsome)
COc1nc(N2CCOCC2)nc(OC)c1NC(=O)CC(C)(C)C | 95% | 164 nM | < 10.4 mL/min/kg | 25.9 ×10⁻⁶ cm/s | 1.11 | > 300000 nM | –
COc1nc(N2CC(OC)C2)nc(OC)c1NC(=O)CC(C)(C)C | 103% | 961 nM | – | – | – | – | –
COc1nc(N2CCCCC2)nc(OC)c1NC(=O)CC(C)(C)C | 182% | 64 nM | 43.7 mL/min/kg | 22.3 ×10⁻⁶ cm/s | 1.59 | > 300000 nM | –
COc1nc(N2CCSCC2)nc(OC)c1NC(=O)CC(C)(C)C | 92% | 24 nM | 69.6 mL/min/kg | – | – | – | –
COc1nc(N2CCCOCC2)nc(OC)c1NC(=O)CC(C)(C)C | 85% | 62 nM | 24.4 mL/min/kg | 20.2 ×10⁻⁶ cm/s | 1.25 | > 300000 nM | –
COc1nc(N2CC(F)(F)C2)nc(OC)c1NC(=O)CC(C)(C)C | 103% | 110 nM | 18.9 mL/min/kg | 28 ×10⁻⁶ cm/s | 1.29 | > 300000 nM | –
COc1nc(N2CCC(OC)CC2)nc(OC)c1NC(=O)CC1CCCCC1 | 152% | 162 nM | – | – | – | – | –
COc1nc(N2CCC(OC)CC2)nc(OC)c1NC(=O)CC1CCCC1 | 143% | 343 nM | – | – | – | – | –
COc1nc(N2C[C@@H]3C[C@H]2CO3)nc(OC)c1NC(=O)CC(C)(C)C | 101% | 1890 nM | – | – | – | – | –
COc1nc(N2CCC(F)(F)CC2)nc(OC)c1NC(=O)CC(C)(C)C | 99% | 50 nM | 21.6 mL/min/kg | – | 1.29 | > 300000 nM | –
CCOC(=O)Nc1ccc(NCc2ccc(F)cc2)cc1N [EZOGABINE] | – | – | < 8 mL/min/kg | 34.2 ×10⁻⁶ cm/s | 1.13 | 213000 nM | –
COc1nc(N2CCC(OC)CC2)nc(OC)c1NC(=O)CCC1CCCC1 | 126% | 40 nM | – | 15.2 ×10⁻⁶ cm/s | 1.21 | 80500 nM | Unstable
COc1nc(N2CCC(OC)CC2)nc(OC)c1NC(=O)CCC(C)C | 132% | 304 nM | – | – | – | – | –
COCCN(C)c1nc(OC)c(NC(=O)CC(C)(C)C)c(OC)n1 | 166% | 206 nM | 21 mL/min/kg | – | 1.11 | > 300000 nM | –
COc1nc(N2CCC(OC)CC2)nc(OC)c1NC(=O)CC(C)C | 138% | 630 nM | – | – | – | – | –
COc1nc(N2CCC(OC(C)C)CC2)nc(OC)c1NC(=O)CC(C)(C)C | 145% | 358 nM | – | – | – | – | –
COc1nc(N2CC3(COC3)C2)nc(OC)c1NC(=O)CC(C)(C)C | 106% | 9190 nM | – | – | – | – | –
